US11072619B2, “Pyrazole[1,5-a] pyrimidine derivatives as kinase JAK inhibitors” (CELON PHARMA S.A., priority 2017, dated 2021)

Columns and labels:
Recombinant kinase JAK1 = Recombinant kinase JAK1 (Homo sapiens (Human), UniProt P23458); assay: In vitro JAK kinase inhibition assay (ADP-Glo), JAK1; assay type: biochemical; conditions: 30 μM ATP, peptide IRS-1, averaged
Description: (§1) In Vitro JAK Kinase Inhibition Assay
(§2) The effects of the compounds of the invention were analysed in vitro using kinase JAK inhibition assay described below.
(§3) Tested compounds were dissolved in 100% DMSO, and obtained stock solutions were serially diluted in the reaction buffer (50 mM Tris pH 7.5, 10 mM MgCl2, 0.25 mM EGTA, 0.1 mM Na3VO4, 0.01% Triton X-100, 2.5 mM DTT). Recombinant kinases JAK1 (ProQinase), JAK2, or JAK3 (Carna Biosciences) were diluted in the dilution buffer (50 mM Tris-HCl pH 7.5, 150 mM NaCl, 10% glycerol, 0.05% Triton X-100, 1 mM DTT) to the final concentration 3 ng/μL (JAK1), 0.1 ng/μL (JAK2), or 0.2 ng/μL (JAK3). 5 μL of obtained solution of the compounds and 5 μL of the solution of respective kinases were added to the well of a 96-well plate. To initiate interaction between tested compounds and an enzyme, the plate was incubated for 10 minutes at 25° C. in a Plate-Thermo-Shaker with orbital stirring at 400 rpm. Wells of a negative control contained all reagents as mentioned above with the exception of tested compounds and kinase, and wells of a positive controls contained all reagents as mentioned above with the exception of tested compounds. Enzymatic reaction was initiated by the addition of 15 μL of the following solution: 5× concentrated reaction buffer (50 mM Tris pH 7.5, 10 mM MgCl2, 0.25 mM EGTA, 0.1 mM Na3VO4, 0.01% Triton X-100, 2.5 mM DTT), water, 30 μM ATP and for particular kinases: JAK1—60 μM peptide IRS-1 (Enzo), JAK2 or JAK3—10 μM peptide IGF-1Rtide (Lipopharm). Then the plate was incubated for 1 hour at 25° C. in a Plate-Thermo-Shaker, with orbital stirring at 400 rpm. Detection of ADP formed in the enzymatic reaction was then performed using ADP-Glo Kinase Assay kit (Promega). For this purpose, to the well of the 96-well plate 25 μL of ADP-Glo Reagent were added, and the plate was incubated for 40 minutes at 25° C. in a Plate-Thermo-Shaker with orbital stirring at 400 rpm. Then to the well of the 96-well plate 50 μL of Kinase Detection Reagent were added and the plate was incubated for 30 minutes at 25° C. in a Plate-Thermo-Shaker with orbital stirring at 400 rpm. After incubation, luminescence intensity was measured using Victor×Light luminometer (Perkin Elmer, Inc.).
(§4) On the basis of luminescence measurement in wells containing tested compounds at various concentrations and in control wells, IC50 values were determined. These values were determined with Graph Pad software v. 5.03, by fitting points of the curve using non-linear regression method. Each compound was tested in at least 6 repetitions (6 wells) on two 96-well plates, using at least 3 wells of each control.
(§5) Averaged results of kinases JAK inhibition activity for selected compounds of the present invention are presented below in Table 1.

Recombinant kinase JAK3 = Recombinant kinase JAK3 (Homo sapiens (Human), UniProt P52333); assay: In vitro JAK kinase inhibition assay (ADP-Glo), JAK3; assay type: biochemical; conditions: 30 μM ATP, peptide IGF-1Rtide, averaged
Description: as §1, §2, §3, §4, §5

TF-1 cells = TF-1 cells viability in vitro in the presence of IL-3 (JAK2 activation); assay type: cell-based; conditions: Homo sapiens, 5 ng/mL IL-3, 72 hours, ATPlite, read-out: JAK2 IL3 (EC50, inhibition of viability of TF-1 cells)
Description: Assay for TF-1 Cells Viability In Vitro
The effects of the activity of the compounds of the invention were tested in vitro using cells viability assay described below.
Tested compounds were dissolved in 100% DMSO, and obtained stock solutions were serially diluted in OptiMEM medium (Reduced Serum Medium-Thermo Fisher Scientific). […] To a well of the 96-well plate 10 μL of the prepared 10× stock solutions of the compounds. Cells on 96-well plates were incubated with the compounds for 72 hours at 37° C., 5% CO2. Subsequently, viability of the cells was measured using ATPlite kit (Perkin Elmer). For this purpose, 50 μL of lysis buffer (mammalian cell lysis solution) were added to a well of the 96-well plate and the plate was incubated for 10 minutes at 25° C. in a plate thermo-shaker with orbital stirring at 600 rpm. Then to a well of the 96-well plate 50 μL of substrate (substrate solution) were added and incubated for 15 minutes at in dark, in a plate thermo-shaker with orbital stirring at 600 rpm. After incubation time, luminescence intensity in a well was measured using Victor×Light luminometer (Perkin Elmer, Inc.).
On the basis of luminescence intensity measurements in well containing tested compounds at various concentrations and in control wells EC50 values were determined. These values were determined with Graph Pad software v. […] Each compound was tested in at least 6 repetitions (6 wells) on two 96-well plates, using at least 3 wells of each control.

[1] = system: STAT6 protein phosphorylation in TF-1 cells; assay: STAT6 phosphorylation inhibition in vitro in TF-1 cells with IL-4; assay type: cell-based; conditions: Homo sapiens, IL-4 20 ng/mL, 1 hour, Western blot densitometry
Description: Assay of STAT6 Phosphorylation Inhibition In Vitro
The activity of the compounds of the invention was tested using in vitro assay described below.
Tested compounds were dissolved in 100% DMSO, and obtained stock solutions were serially in OptiMEM medium (Reduced Serum Medium-Thermo Fisher Scientific). TF-1 cells (DSMZ no.: ACC 334) in culture medium (80% RPMI 1640+20% FBS) in the presence of IL-4 at 20 ng/mL were sieved on 12-well plates at 900 μl/well, 700 thousands of cells/well. To a well of the 12-well plate 100 μL of obtained 10× solution of the compounds were added. Cells on 12-well plates were incubated with tested compounds for 1 hour at 37° C., 5% CO2. Subsequently the cells were washed with PBS, lysed in RIPA buffer added with EDTA, proteases and phosphatases inhibitors, and incubated for 5 min on ice. Protein concentration was determined using Pierce BCA Protein Assay Kit (Thermo Fisher Scientific). Protein lysates were separated by electrophoresis (SDS-PAGE) on 8% polyacrylamide gels, then wet-transferred on nitrocellulose membrane and tested proteins were detected in accordance with the instructions of antibody manufacturer.
On the basis of the measurement of chemoluminescence intensity densitometric analysis was performed, results obtained for the cells treated with tested compounds at various concentrations were compared with those obtained for control cells, and IC50 values were determined.
These values were determined with Graph Pad software v. 5.03, by fitting points of the curve using non-linear regression method. Each compound was tested in at least 3 repetitions.

Sequence of Recombinant kinase JAK3 (P52333 whole entry): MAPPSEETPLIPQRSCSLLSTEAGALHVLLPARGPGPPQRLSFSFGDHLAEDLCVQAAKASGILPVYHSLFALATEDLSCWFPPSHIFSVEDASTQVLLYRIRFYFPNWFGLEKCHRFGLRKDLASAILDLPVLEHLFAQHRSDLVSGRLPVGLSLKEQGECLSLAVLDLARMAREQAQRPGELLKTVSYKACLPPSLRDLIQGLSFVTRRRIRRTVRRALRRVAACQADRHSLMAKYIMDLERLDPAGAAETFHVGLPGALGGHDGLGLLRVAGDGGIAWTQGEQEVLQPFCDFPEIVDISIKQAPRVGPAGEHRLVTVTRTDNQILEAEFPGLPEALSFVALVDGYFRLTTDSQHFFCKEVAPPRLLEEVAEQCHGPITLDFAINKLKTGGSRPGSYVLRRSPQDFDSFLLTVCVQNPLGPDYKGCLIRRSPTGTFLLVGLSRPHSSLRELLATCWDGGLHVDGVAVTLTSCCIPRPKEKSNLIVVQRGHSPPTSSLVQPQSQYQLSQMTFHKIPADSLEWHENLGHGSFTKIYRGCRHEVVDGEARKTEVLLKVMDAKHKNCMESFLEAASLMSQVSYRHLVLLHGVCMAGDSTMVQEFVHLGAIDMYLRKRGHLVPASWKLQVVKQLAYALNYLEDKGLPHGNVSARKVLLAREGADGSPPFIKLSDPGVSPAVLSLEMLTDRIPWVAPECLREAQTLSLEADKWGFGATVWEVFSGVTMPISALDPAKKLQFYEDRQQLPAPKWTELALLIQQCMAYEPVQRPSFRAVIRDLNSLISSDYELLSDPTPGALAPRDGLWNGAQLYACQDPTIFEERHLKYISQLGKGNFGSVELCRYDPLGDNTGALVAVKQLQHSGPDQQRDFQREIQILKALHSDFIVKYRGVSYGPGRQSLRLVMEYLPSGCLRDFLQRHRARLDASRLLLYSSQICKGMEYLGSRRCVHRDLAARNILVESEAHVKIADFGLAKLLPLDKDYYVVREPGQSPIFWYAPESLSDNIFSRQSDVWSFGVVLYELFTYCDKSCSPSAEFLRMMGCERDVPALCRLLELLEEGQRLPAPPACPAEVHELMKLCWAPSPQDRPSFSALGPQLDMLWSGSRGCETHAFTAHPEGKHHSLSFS
Sequence of Recombinant kinase JAK1 (P23458 whole entry): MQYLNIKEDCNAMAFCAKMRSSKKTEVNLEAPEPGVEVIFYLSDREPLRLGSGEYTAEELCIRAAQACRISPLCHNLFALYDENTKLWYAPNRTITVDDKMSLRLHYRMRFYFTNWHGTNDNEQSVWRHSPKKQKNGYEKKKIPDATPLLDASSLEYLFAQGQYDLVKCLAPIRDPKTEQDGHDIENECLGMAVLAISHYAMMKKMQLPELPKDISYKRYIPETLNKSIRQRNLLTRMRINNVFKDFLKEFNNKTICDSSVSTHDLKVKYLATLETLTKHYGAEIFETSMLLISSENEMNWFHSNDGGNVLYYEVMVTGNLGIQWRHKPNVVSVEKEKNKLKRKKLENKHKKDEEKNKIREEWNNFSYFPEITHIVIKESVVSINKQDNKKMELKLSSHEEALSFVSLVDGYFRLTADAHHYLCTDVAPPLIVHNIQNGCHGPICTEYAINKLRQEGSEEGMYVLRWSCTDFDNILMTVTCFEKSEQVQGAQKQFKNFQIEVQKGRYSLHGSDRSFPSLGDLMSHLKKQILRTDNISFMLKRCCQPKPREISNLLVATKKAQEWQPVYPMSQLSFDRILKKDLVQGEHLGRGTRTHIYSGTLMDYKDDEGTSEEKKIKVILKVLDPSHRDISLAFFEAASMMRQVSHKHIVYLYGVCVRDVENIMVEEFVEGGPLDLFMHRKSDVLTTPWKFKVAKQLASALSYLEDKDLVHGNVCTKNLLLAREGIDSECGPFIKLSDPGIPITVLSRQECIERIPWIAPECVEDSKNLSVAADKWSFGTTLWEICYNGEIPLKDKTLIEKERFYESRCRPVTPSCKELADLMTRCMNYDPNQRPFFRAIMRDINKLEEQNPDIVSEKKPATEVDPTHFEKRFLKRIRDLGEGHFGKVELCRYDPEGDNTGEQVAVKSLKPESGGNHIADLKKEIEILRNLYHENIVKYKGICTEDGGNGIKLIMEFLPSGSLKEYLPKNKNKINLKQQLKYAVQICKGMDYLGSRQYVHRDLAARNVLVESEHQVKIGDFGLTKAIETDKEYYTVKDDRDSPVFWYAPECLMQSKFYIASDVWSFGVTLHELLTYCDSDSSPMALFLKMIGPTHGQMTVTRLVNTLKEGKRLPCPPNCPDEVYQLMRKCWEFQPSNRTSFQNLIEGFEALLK

Row | IC50 (Recombinant kinase JAK1) | IC50 (Recombinant kinase JAK3) | IC50 [1] | SMILES | IC50 (TF-1 cells)
1 | 2.67 nM | 2.67 nM | 442 nM | COc1ccc(-c2cc3ncc(C(N)=O)c(N[C@@H]4CCN(c5ccc(C#N)nn5)CC4(C)C)n3n2)cn1 [Example 4, (R)-7-((1-(6-Cyanopyridazin-3-yl)-3,3-dimethylpiperidin-4-yl)amino)-2-(6-methoxy-pyridin-3-yl)pyrazolo[1,5-a]pyrimidine-6-carboxamide] | 707 nM
2 | 0.75 nM | 0.19 nM | 116 nM | CC1(C)CN(c2ccc(C#N)nn2)CC[C@H]1Nc1c(C(N)=O)cnc2cc(-c3ccc(N4CCOCC4)nc3)nn12 [Example 7, (R)-7-((1-(6-Cyanopyridazin-3-yl)-3,3-dimethylpiperidin-4-yl)amino)-2-(6-morpholinopyridin-3-yl)pyrazolo[1,5-a]pyrimidine-6-carboxamide] | 283 nM
3 | 0.05 nM | 0.03 nM | 114 nM | COc1cccc(-c2cc3ncc(C(N)=O)c(N[C@@H]4CCN(c5ccc(C#N)nn5)CC4(C)C)n3n2)n1 [Example 11, (R)-7-((1-(6-Cyanopyridazin-3-yl)-3,3-dimethylpiperidin-4-yl)amino)-2-(6-methoxy-pyridin-2-yl)pyrazolo[1,5-a]pyrimidine-6-carboxamide] | 451 nM
4 | 0.51 nM | 0.29 nM | 150 nM | Cc1cc(-c2cc3ncc(C(N)=O)c(N[C@@H]4CCN(c5ccc(C#N)nn5)CC4(C)C)n3n2)ccn1 [Example 12, (R)-7-((1-(6-Cyanopyridazin-3-yl)-3,3-dimethylpiperidin-4-yl)amino)-2-(2-methyl-pyridin-4-yl)pyrazolo[1,5-a]pyrimidine-6-carboxamide] | 361 nM
